Reference: patent publication US10626144B2, “Peptide derivatives and uses thereof” (Nosopharm, priority 2014, dated 2020)
Square brackets hold non-standard residues; d marks the D form. Peptide text beside a SMILES is read from it. * marks the point of attachment. Phe(4-COOH) = N[C@@H](Cc1ccc(C(=O)O)cc1)C(=O)O; Phe(4-CN) = N#Cc1ccc(C[C@H](N)C(=O)O)cc1; Pro(cis-4-F) = O=C(O)[C@@H]1C[C@H](F)CN1; Phe(3-F) = N[C@@H](Cc1cccc(F)c1)C(=O)O; Phe(3-Me) = Cc1cccc(C[C@H](N)C(=O)O)c1; Dab(3S-OH) = NC[C@H](O)[C@H](N)C(=O)O; 3Pal = N[C@@H](Cc1cccnc1)C(=O)O; 4Pal = N[C@@H](Cc1ccncc1)C(=O)O; ΔZArg = N=C(N)NCC/C=C(\N)C(=O)O; aThr = C[C@H](O)[C@H](N)C(=O)O; dOrn = NCCC[C@@H](N)C(=O)O; Pip = O=C(O)[C@@H]1CCCCN1; hSer = N[C@@H](CCO)C(=O)O; Orn = NCCC[C@H](N)C(=O)O; Dab = NCC[C@H](N)C(=O)O; NH(CH2)4NH2 = NCCCCN*; NHOH = ON*

Columns and labels:
Assay in all cases: MIC, broth microdilution (CLSI), reference strain
Conditions in all cases: CAMHB
[1] = test system: Staphylococcus aureus ATCC 13709
[2] = test system: Acinetobacter baumannii ATCC 19606
[3] = test system: Pseudomonas aeruginosa ATCC 27853
[4] = test system: Escherichia coli ATCC 25922

Compound | Sa: MIC Staphylococcus aureus ATCC 13709 [1] | Ab: MIC Acinetobacter baumannii ATCC 19606 [2] | Pa: MIC Pseudomonas aeruginosa ATCC 27853 [3] | Ec: MIC Escherichia coli ATCC 25922 [4]
N=C(N)NCC/C=C(\NC(=O)[C@H](CCCCN)NC(=O)[C@H](Cc1cccc(F)c1)NC(=O)[C@@H]1CCCN1C(=O)[C@@H](CCCN)NC(=O)CNC(=O)[C@H](CCN)NC(=O)[C@@H](NC(=O)[C@@H](N)CCCCN)[C@@H](O)CN)C(=O)O [21.7] (H-K[Dab(3S-OH)][Dab]G[dOrn]P[Phe(3-F)]K[ΔZArg]-OH) | ++ (≤8 μg/mL) | − (>32 μg/mL) | − (>32 μg/mL) | ++ (≤8 μg/mL)
N#Cc1ccc(C[C@H](NC(=O)[C@@H]2CCCN2C(=O)[C@@H](CCCN)NC(=O)CNC(=O)[C@H](CCN)NC(=O)[C@@H](NC(=O)[C@@H](N)CCCCN)[C@@H](O)CN)C(=O)N[C@@H](CCCCN)C(=O)N/C(=C\CCNC(=N)N)C(=O)O)cc1 [21.9] (H-K[Dab(3S-OH)][Dab]G[dOrn]P[Phe(4-CN)]K[ΔZArg]-OH) | ++ (≤8 μg/mL) | − (>32 μg/mL) | − (>32 μg/mL) | ++ (≤8 μg/mL)
C[C@H](O)[C@H](NC(=O)[C@H](CCN)NC(=O)[C@@H](N)CCCCN)C(=O)NCC(=O)N[C@H](CCCN)C(=O)N1CCC[C@H]1C(=O)N[C@@H](Cc1cnc[nH]1)C(=O)N[C@@H](CCCCN)C(=O)N/C(=C\CCNC(=N)N)C(=O)N[C@@H](CCCCN)C(=O)NCCCCN [15.1] (H-K[Dab][aThr]G[dOrn]PHK[ΔZArg]K-{NH(CH2)4NH2}) | + (≤32 μg/mL) | − (>32 μg/mL) | − (>32 μg/mL) | − (>32 μg/mL)
C[C@H](NC(=O)[C@H](CCN)NC(=O)[C@H](N)CCCCN)C(=O)NCC(=O)N[C@H](CCCN)C(=O)N1CCC[C@H]1C(=O)N[C@@H](Cc1cnc[nH]1)C(=O)N[C@@H](CCCCN)C(=O)N/C(=C\CCNC(=N)N)C(=O)N[C@@H](CCCCN)C(=O)NCCCCN [14.22] (H-[dK][Dab]AG[dOrn]PHK[ΔZArg]K-{NH(CH2)4NH2}) | + (≤32 μg/mL) | − (>32 μg/mL) | − (>32 μg/mL) | − (>32 μg/mL)
C[C@H](NC(=O)/C(=C/CCNC(=N)N)NC(=O)[C@H](CCCCN)NC(=O)[C@H](Cc1cnc[nH]1)NC(=O)[C@@H]1CCCN1C(=O)[C@@H](CCCN)NC(=O)CNC(=O)[C@@H](NC(=O)[C@@H](NC(=O)[C@@H](N)CCCCN)[C@@H](O)CN)[C@@H](O)CN)C(N)=O [22.14] (H-K[Dab(3S-OH)][Dab(3S-OH)]G[dOrn]PHK[ΔZArg]A-NH2) | ++ (≤8 μg/mL) | − (>32 μg/mL) | − (>32 μg/mL) | ++ (≤8 μg/mL)
N=C(N)NCC/C=C(\NC(=O)[C@H](CCCCN)NC(=O)[C@H](Cc1cnc[nH]1)NC(=O)[C@@H]1CCCN1C(=O)[C@@H](CCCN)NC(=O)CNC(=O)CNC(=O)[C@H](CCN)NC(=O)[C@@H](N)CCCCN)C(=O)N[C@@H](CCCCN)C(=O)NCCCCN [13.1] (H-K[Dab]GG[dOrn]PHK[ΔZArg]K-{NH(CH2)4NH2}) | + (≤32 μg/mL) | − (>32 μg/mL) | − (>32 μg/mL) | − (>32 μg/mL)
C[C@H](NC(=O)[C@H](CCN)NC(=O)[C@@H](N)CCCCN)C(=O)NCC(=O)N[C@H](CCCN)C(=O)N1CCC[C@H]1C(=O)N[C@@H](Cc1cnc[nH]1)C(=O)N[C@@H](CCCCN)C(=O)N/C(=C\CCNC(=N)N)C(=O)N[C@H](CCCCN)C(=O)NCCCCN [14.11] (H-K[Dab]AG[dOrn]PHK[ΔZArg][dK]-{NH(CH2)4NH2}) | ++ (≤8 μg/mL) | − (>32 μg/mL) | − (>32 μg/mL) | − (>32 μg/mL)
C[C@H](NC(=O)[C@H](CCN)NC(=O)[C@@H](N)CCCCN)C(=O)NCC(=O)N[C@H](CCCN)C(=O)N1CCC[C@H]1C(=O)N[C@@H](Cc1cnc[nH]1)C(=O)N[C@@H](CCCCN)C(=O)N/C(=C\CCNC(=N)N)C(=O)N[C@@H](CCCCN)C(=O)NO [14.14] (H-K[Dab]AG[dOrn]PHK[ΔZArg]K-{NHOH}) | ++ (≤8 μg/mL) | − (>32 μg/mL) | − (>32 μg/mL) | − (>32 μg/mL)

Second part, the molecule after the results:

Sa: MIC Staphylococcus aureus ATCC 13709 [1] | Ab: MIC Acinetobacter baumannii ATCC 19606 [2] | Pa: MIC Pseudomonas aeruginosa ATCC 27853 [3] | Ec: MIC Escherichia coli ATCC 25922 [4] | Compound
++ (≤8 μg/mL) | − (>32 μg/mL) | − (>32 μg/mL) | ++ (≤8 μg/mL) | Cc1cccc(C[C@H](NC(=O)[C@@H]2CCCN2C(=O)[C@@H](CCCN)NC(=O)CNC(=O)[C@H](CCCN)NC(=O)[C@@H](NC(=O)[C@@H](N)CCCCN)[C@@H](O)CN)C(=O)N[C@@H](CCCCN)C(=O)N/C(=C\CCNC(=N)N)C(=O)O)c1 [211.5] (H-K[Dab(3S-OH)][Orn]G[dOrn]P[Phe(3-Me)]K[ΔZArg]-OH)
++ (≤8 μg/mL) | − (>32 μg/mL) | − (>32 μg/mL) | + (≤32 μg/mL) | C[C@H](NC(=O)[C@@H](NC(=O)[C@@H](N)CCCCN)[C@@H](O)CN)C(=O)NCC(=O)N[C@H](CCCN)C(=O)N1C[C@@H](F)C[C@H]1C(=O)N[C@@H](Cc1cnc[nH]1)C(=O)N[C@@H](CCCCN)C(=O)N/C(=C\CCNC(=N)N)C(=O)O [24.144] (H-K[Dab(3S-OH)]AG[dOrn][Pro(cis-4-F)]HK[ΔZArg]-OH)
++ (≤8 μg/mL) | − (>32 μg/mL) | − (>32 μg/mL) | ++ (≤8 μg/mL) | N=C(N)NCC/C=C(\NC(=O)[C@H](CCCCN)NC(=O)[C@H](Cc1cnc[nH]1)NC(=O)[C@@H]1CCCN1C(=O)[C@@H](CCCN)NC(=O)CNC(=O)CNC(=O)[C@@H](NC(=O)[C@@H](N)CCCCN)[C@@H](O)CN)C(=O)N[C@@H](CCCCN)C(=O)NCCCCN [23.1] (H-K[Dab(3S-OH)]GG[dOrn]PHK[ΔZArg]K-{NH(CH2)4NH2})
+ (≤32 μg/mL) | − (>32 μg/mL) | − (>32 μg/mL) | − (>32 μg/mL) | COCC[C@H](NC(=O)[C@@H]1CCCN1C(=O)[C@@H](CCCN)NC(=O)CNC(=O)[C@H](C)NC(=O)[C@@H](NC(=O)[C@@H](N)CCCCN)[C@@H](O)CN)C(=O)N[C@@H](CCCCN)C(=O)N/C(=C\CCNC(=N)N)C(=O)O [24.130] (H-K[Dab(3S-OH)]AG[dOrn]P[hSer](Me)K[ΔZArg]-OH)
+ (≤32 μg/mL) | − (>32 μg/mL) | − (>32 μg/mL) | + (≤32 μg/mL) | C[C@@H](O)[C@H](NC(=O)[C@@H](NC(=O)[C@@H](N)CCCCN)[C@@H](O)CN)C(=O)NCC(=O)N[C@H](CCCN)C(=O)N1CCC[C@H]1C(=O)N[C@@H](Cc1cnc[nH]1)C(=O)N[C@@H](CCCCN)C(=O)N/C(=C\CCNC(=N)N)C(=O)O [25.3] (H-K[Dab(3S-OH)]TG[dOrn]PHK[ΔZArg]-OH)
++ (≤8 μg/mL) | − (>32 μg/mL) | + (≤32 μg/mL) | ++ (≤8 μg/mL) | C[C@H](NC(=O)[C@@H](NC(=O)[C@@H](N)CCCCN)[C@@H](O)CN)C(=O)NCC(=O)N[C@H](CCCN)C(=O)N1CCC[C@H]1C(=O)N[C@@H](Cc1ccncc1)C(=O)N[C@@H](CCCCN)C(=O)N/C(=C\CCNC(=N)N)C(=O)N[C@@H](CCCCN)C(=O)NCCCCN [24.19] (H-K[Dab(3S-OH)]AG[dOrn]P[4Pal]K[ΔZArg]K-{NH(CH2)4NH2})
++ (≤8 μg/mL) | − (>32 μg/mL) | + (≤32 μg/mL) | ++ (≤8 μg/mL) | C[C@H](NC(=O)[C@@H](NC(=O)[C@@H](N)CCCCN)[C@@H](O)CN)C(=O)NCC(=O)N[C@H](CCCN)C(=O)N1CCCC[C@H]1C(=O)N[C@@H](Cc1cnc[nH]1)C(=O)N[C@@H](CCCCN)C(=O)N/C(=C\CCNC(=N)N)C(=O)N[C@@H](CCCCN)C(=O)NCCCCN [24.3] (H-K[Dab(3S-OH)]AG[dOrn][Pip]HK[ΔZArg]K-{NH(CH2)4NH2})
++ (≤8 μg/mL) | − (>32 μg/mL) | − (>32 μg/mL) | ++ (≤8 μg/mL) | C[C@H](NC(=O)[C@@H](NC(=O)[C@@H](N)CCCCN)[C@@H](O)CN)C(=O)NCC(=O)N[C@H](CCCN)C(=O)N1CCC[C@H]1C(=O)N[C@@H](Cc1ccc(C(=O)O)cc1)C(=O)N[C@@H](CCCCN)C(=O)N/C(=C\CCNC(=N)N)C(=O)O [24.161] (H-K[Dab(3S-OH)]AG[dOrn]P[Phe(4-COOH)]K[ΔZArg]-OH)
+ (≤32 μg/mL) | − (>32 μg/mL) | − (>32 μg/mL) | + (≤32 μg/mL) | C[C@H](NC(=O)[C@@H](NC(=O)[C@@H](N)CCCCN)[C@@H](O)CN)C(=O)NCC(=O)N[C@H](CCCN)C(=O)N1CCC[C@H]1C(=O)N[C@@H](Cc1cccnc1)C(=O)N[C@@H](CCCCN)C(=O)N/C(=C\CCNC(=N)N)C(=O)O [24.107] (H-K[Dab(3S-OH)]AG[dOrn]P[3Pal]K[ΔZArg]-OH)
++ (≤8 μg/mL) | − (>32 μg/mL) | − (>32 μg/mL) | ++ (≤8 μg/mL) | COc1ccc(C[C@H](NC(=O)[C@@H]2CCCN2C(=O)[C@@H](CCCN)NC(=O)CNC(=O)[C@H](CCCN)NC(=O)[C@@H](NC(=O)[C@@H](N)CCCCN)[C@@H](O)CN)C(=O)N[C@@H](CCCCN)C(=O)N/C(=C\CCNC(=N)N)C(=O)O)cc1 [211.7] (H-K[Dab(3S-OH)][Orn]G[dOrn]PY(Me)K[ΔZArg]-OH)
